Assay results taken from patent publication US20160250285A1, “NEUROPROTECTIVE PEPTIDES” (priority 2013, published 2016).
Where two headings read alike, the source gives them in different places. Peptide text beside a SMILES is read from it.

Columns and labels:
[1] = tested on: primary cortical neuronal cultures; settings: for neuroprotection, milder insult: FIG. 1i, comparison at 0.5 μM and 1 μM; for neuroprotection (neuronal viability): peptide 15 min prior to and during glutamic acid exposure, viability 24 h, MTS
Protocol: Briefly, cortical tissue from E18-E19 Sprague-Dawley rats was dissociated in Dulbecco's modified Eagle medium (DMEM; Invitrogen, Australia) supplemented with 1.3 mM L-cysteine, 0.9 mM NaHCOa, 10 units/ml papain (Sigma, USA) and 50 units/ml DNase (Sigma) and washed in cold DMEM/10% horse serum. Neurons were resuspended in Neurobasal (Invitrogen) containing 2% B27 supplement (B27; Invitrogen). Before seeding, 96-well sized glass wells (6 mm diameter, ProTech, Australia) or 96-well plastic plates (ProSciTech, Australia) were coated with poly-D-lysine overnight ([…]: 50 mg/mL; 70-150 K, Sigma). […] Neurons were plated to obtain ≈10,000 viable neurons for each well on day in vitro 11-12. […] On day in vitro 4 one third of the culture medium was removed and replaced with fresh Neurobasal/2% B27 containing the mitotic inhibitor, cytosine arabinofuraNOside (1 mM final concentration; Sigma). On day in vitro 8 one half of the culture medium was replaced with Neurobasal/2% B27.
To induce excitotoxicity, 50 μl of Neurobasal/2% B27 containing glutamic acid (200 μM) or kainic acid (400 μM) or NMDA (200 μM) was added to the culture wells (100 μM glutamic acid, 200 μM kainic acid and NMDA 100 μM final concentration). Cultures were incubated at 37° C. in the CO2 incubator for 5 minutes for glutamic acid, 45 minutes for kainic acid and 10 minutes for NMDA exposure, after which time the media was replaced with 100 μl of 50% Neurobasal/2% N2 supplement (Invitrogen) and 50% balanced salt solution (BSS; see below). Cultures were incubated for a further 24 hours at 37° C. in the CO2 incubator. The untreated controls with or without glutamic acid or kainic acid treatment received the same wash steps and media additions.
Following this step, cultures were treated as described above. Untreated controls with or without glutamic acid exposure received the same wash steps and media additions. In addition, a post-glutamic acid exposure CPP treatment (5 μM) experiment was performed for the R9 peptide and the JNKI-1D-TAT control peptide.
For pre-glutamic acid exposure experiments, neurons were exposed to peptide(s) for a 10 minute period, immediately before or 1, 2, 3, 4 or 5 hours prior to glutamic acid exposure. […] At the relevant peptide pre-treatment time, media was removed and replaced with 100 μl of Neurobasal/2%. […] Following 5-minute glutamic acid exposure, neuronal culture wells were treated as described above. For all experiments untreated controls with or without glutamic acid treatment underwent the same incubation steps and media additions.
Heparin (for injection) was obtained from Pfizer (1000 IU/ml). Two different heparin experiments were performed: 1. Peptides were incubated with heparin (20 IU/ml) in Neurobasal/B27 for 5 minutes at room temperature, before addition to culture wells (50 μl) for 15 minutes at 37° C. in the CO2 incubator. Following the incubation period, media in wells was removed and replaced with 100 μl of Neurobasal/2% B27 containing glutamic acid (100 μM), and subsequently treated as described above; 2. Media in wells was replaced with Neurobasal/2% B27 containing heparin (50 μl; 40 IU/ml) and incubated for 5 minutes at 37° C. in the CO2 incubator. After the incubation period, peptides or glutamate receptor blockers (MK801/CNQX) in Neurobasal/2% B27 (50 μl) were added to the culture wells and cultures incubated for a further 10 minutes at 37° C. in the CO2 incubator. Following the incubation period, media in wells was removed and replaced with 100 μl of Neurobasal/2% B27 containing glutamic acid (100 μM), and subsequently treated as described above. For all experiments, non-heparin treated peptide controls with glutamic acid treatment underwent the same incubation steps and media additions.
Twenty-four hours after insult, neuronal cultures were examined by light microscopy for qualitative assessment of neuronal cell viability.

[2] = tested on: intracellular calcium influx in neuronal cultures; test: Intracellular calcium influx (Fura-2 AM) after glutamic acid; assay type: cell-based, rat; settings: peptide 5 μM for 10 min, removed before 100 μM glutamic acid (FIG. 44)
Protocol: Fura-2 AM was used for intracellular calcium assessment. Representative fluorescent Fura-2 AM tracers; fluorescence intensity (FI) of neuronal cultures 30 sec before and following addition (arrow) of glutamic acid (100 μM final concentration). Peptides or glutamate receptor blockers were added to neuronal cultures for 10 min and removed (time 0) before glutamic acid. Values are mean±SE; n=3. Peptide concentration was 5 μM.
Briefly, cortical tissue from E18-E19 Sprague-Dawley rats was dissociated in Dulbecco's modified Eagle medium (DMEM; Invitrogen, Australia) supplemented with 1.3 mM L-cysteine, 0.9 mM NaHCOa, 10 units/ml papain (Sigma, USA) and 50 units/ml DNase (Sigma) and washed in cold DMEM/10% horse serum. Neurons were resuspended in Neurobasal (Invitrogen) containing 2% B27 supplement (B27; Invitrogen). Before seeding, 96-well sized glass wells (6 mm diameter, ProTech, Australia) or 96-well plastic plates (ProSciTech, Australia) were coated with poly-D-lysine overnight (50 ml/well: 50 mg/mL; 70-150 K, Sigma). Excess poly-D-lysine solution was then removed and replaced with Neurobasal (containing 2% B27; 4% fetal bovine serum; 1% horse serum; 62.5 mM glutamate; 25 mM 2-mercaptoethanol; and 30 mg/mL streptomycin and 30 mg/mL penicillin). Neurons were plated to obtain ≈10,000 viable neurons for each well on day in vitro 11-12. Neuronal cultures were maintained in a CO2 incubator (5% CO2, 95% air balance, 98% humidity) at 37° C. On day in vitro 4 one third of the culture medium was removed and replaced with fresh Neurobasal/2% B27 containing the mitotic inhibitor, cytosine arabinofuraNOside (1 mM final concentration; Sigma). On day in vitro 8 one half of the culture medium was replaced with Neurobasal/2% B27. Cultures were used on day in vitro 11 or 12 after which time they routinely consist of >97% neurons and 1-3% astrocytes (Meloni et al. 2001).

[3] = tested on: primary cortical neuronal cultures; test: In vitro ischemia / oxygen-glucose deprivation (OGD) model, neurons; assay type: cell-based, rat
Protocol: Establishment of cortical cultures was as previously described (Meloni et al. 2001). Briefly, cortical tissue from E18-E19 Sprague-Dawley rats was dissociated in Dulbecco's modified Eagle medium (DMEM; Invitrogen, Australia) supplemented with 1.3 mM L-cysteine, 0.9 mM NaHCOa, 10 units/ml papain (Sigma, USA) and 50 units/ml DNase (Sigma) and washed in cold DMEM/10% horse serum. Neurons were resuspended in Neurobasal (Invitrogen) containing 2% B27 supplement (B27; Invitrogen). Before seeding, 96-well sized glass wells (6 mm diameter, ProTech, Australia) or 96-well plastic plates (ProSciTech, Australia) were coated with poly-D-lysine overnight (50 ml/well: 50 mg/mL; 70-150 K, Sigma). Excess poly-D-lysine solution was then removed and replaced with Neurobasal (containing 2% B27; 4% fetal bovine serum; 1% horse serum; 62.5 mM glutamate; 25 mM 2-mercaptoethanol; and 30 mg/mL streptomycin and 30 mg/mL penicillin). Neurons were plated to obtain ≈10,000 viable neurons for each well on day in vitro 11-12. Neuronal cultures were maintained in a CO2 incubator (5% CO2, 95% air balance, 98% humidity) at 37° C. On day in vitro 4 one third of the culture medium was removed and replaced with fresh Neurobasal/2% B27 containing the mitotic inhibitor, cytosine arabinofuraNOside (1 mM final concentration; Sigma). On day in vitro 8 one half of the culture medium was replaced with Neurobasal/2% B27. Cultures were used on day in vitro 11 or 12 after which time they routinely consist of >97% neurons and 1-3% astrocytes (Meloni et al. 2001).
The in vitro ischemia model used for primary cortical neuronal cultures was performed as previously described (Meloni et at 2011) Briefly, culture media was removed from wells (glass 96-well plate format) and washed with 315 μl of glucose free balanced salt solution (BSS; mM: 116 NaCl, 5.4 KCl, 1.8 CaCl2, 0.8 MgSO4, 1 NaH2PO4; pH 6.9) before the addition of 60 μl BSS containing cell penetrating or control peptides (see Table 1). A non-peptide positive control consisting of the glutamate receptor blockers (5 μM MK801/5 μM 6-cyano-7-nitroquinoxaline: MK801/CNQX) was also included. In vitro ischemia was initiated by placing wells in an anaerobic incubator (Don Whitely Scientific, England; atmosphere of 5% CO2, 10% H2 and 85% argon, 98% humidity) at 37° C. for 55 minutes. Upon removal from the anaerobic incubator, 60 μl of Neurobasal/2% N2 supplement was added to the wells and cultures incubated for a further 24 hours at 37° C. in the CO2 incubator. Control cultures received the same BSS wash procedures and media additions as ischemic treated cultures before incubation at 37° C. in the CO2 incubator.
Control cultures underwent the same BSS wash procedures and media additions as OGD treated cultures.
Twenty-four hours after insult, neuronal cultures were examined by light microscopy for qualitative assessment of neuronal cell viability. Neuronal viability was quantitatively measured by 3-(4,5,dimethyliazol-2-yl)-5-(3-carboxymethoxy-phenyl)-2-(4-sulfophenyl)-2H-tetrazolium salt (MTS) assay (Promega, Australia). The MTS assay measures the cellular conversion of the tetrazolium salt to a water-soluble brown formazan salt, which is detected spectrophotometrically at 490 nm. MTS absorbance data were converted to reflect proportional cell viability relative to both the untreated and treated controls, with the untreated control taken as 100% viability, and presented as mean±SEM. […] Viability data was analysed by ANOVA, followed by post-hoc Fischer's PLSD test, with P<0.05 values considered statistically significant. Four- to six wells were used in all assays.

[4] = tested on: permanent middle cerebral artery occlusion (MCAO) stroke model; test: Rat permanent middle cerebral artery occlusion (MCAO) stroke model; assay type: in vivo; settings: 1 μmol/kg IV 30 min post-MCAO; infarct volume 24 h post-MCAO (FIGS. 5, 27)
Protocol: Administration of peptide (DR9: rrrrrrrrr-NH2; R12, R15, R18, protamine sulphate; protamine) or vehicle (saline: 0.9% NaCl) treatment solution was performed at 30 min post-MCAO. The peptide treatment comprised DR9 in saline (600 μl) to provide an intravenous loading dose of 1 μmol/kg or 1000 nmol/kg given over 5-6 min via the right jugular vein.
This study was approved by the Animal Ethics Committee of the University of Western Australia. Male Sprague Dawley rats weighing 270 g to 350 g were kept under controlled housing conditions with 12 hour light-dark cycle with free access to food and water. Experimental animals were fasted overnight and subjected to permanent middle cerebral artery occlusion (MCAO) as follows.
Anaesthesia was induced with 4% isoflurane and a 2:1 mix of N2O and O2 via mask. Anaesthesia was maintained at 1.7-2% isoflurane. Cerebral blood flow (CBF) was monitored continuously using laser Doppler flowmetry (Blood FlowMeter, AD Instruments, Sydney, Australia). The probe was located 1 mm caudal and 4 mm lateral (right) to the bregma. A cannula was inserted in the right femoral artery to continuously monitor blood pressure and to provide samples for blood glucose and blood gas readings. Blood glucose was measured using a glucometer (MediSense Products, Abbott Laboratories, Bedford, Mass., USA) and blood gases were measured using a blood gas analyser (ABL5, Radiometer, Copenhagen, Denmark). Blood pressure was maintained at 80-100 mmHg. During surgery, rectal temperature was maintained at 37±0.5° C. and warming applied with a fan heater when necessary. For intravenous infusions, a length of PVC line primed with heparinised saline was tied in place in the right jugular vein, then externalised through a dorsal mid-scapular incision to a tether/swivel system (Instech Laboratories, Philadelphia, USA) designed to permit free movement.
The right common carotid artery (CCA) was exposed via a ventral neck incision. […] The isolated section of the ECA was ligated and cauterised to create a stump. The carotid body was removed and the pterygopalatine artery was ligated. A 4-0 nylon monofilament with a 0.39 mm diameter silicone tip (Doccol, Redlands, Calif., USA) was inserted through the ECA stump into the CCA and advanced rostrally into the internal carotid artery (ICA) until the laser Doppler flowmetry recorded a >30% decrease from baseline of cerebral blood flow. The monofilament was secured in two places (at the base of the ECA stump and on the ICA) for the remainder of the experiment. Animals were given post-operative analgesia consisting of pethidine (3 mg/kg intramuscular) and bupivacaine (1.5 mg/kg subcutaneously) at head and leg incision sites.
Post-surgery animals were allowed to recover in a climate-controlled chamber and their core body temperature monitored and maintained at 37±0.5° C. by a cooling/heating fan when required for 3-4 hours.
Animals were sacrificed 24 hours post-MCAO with intra-peritoneal injections of sodium pentobarbitone (900 mg/kg). […] Slices were scanned and images were analysed by an operator blind to treatment status using ImageJ 3rd edition (NIH, USA). The total infarct volume was determined by adding the areas of infarcted tissue on both sides of the 2 mm sections. These measured areas were multiplied by half slice thickness (1 mm), and corrected for cerebral oedema by multiplying the ratio of affected to normal hemisphere areas. […]

N=C(N)NCCC[C@H](N)C(=O)O [Peptide R1, H-R-OH]
neuroprotection, milder insult [1]: ineffective
neuroprotection (neuronal viability) [1]: no to little neuroprotection
IC50 ([1]; read-out: IC50: Glutamic acid model, Table 4, polyarginine peptides, from dose response graph FIG. 1e): > 5 µM

N=C(N)NCCC[C@H](NC(=O)[C@H](CCCNC(=N)N)NC(=O)[C@@H](N)CCCNC(=N)N)C(=O)O [Peptide R3, H-RRR-OH] (H-Arg-Arg-Arg-OH)
IC50 [1]: > 5 µM
neuroprotection, milder insult [1]: ineffective
neuroprotection (neuronal viability) [1]: no to little neuroprotection

N=C(N)NCCC[C@H](NC(=O)[C@H](CCCNC(=N)N)NC(=O)[C@H](CCCNC(=N)N)NC(=O)[C@H](CCCNC(=N)N)NC(=O)[C@H](CCCNC(=N)N)NC(=O)[C@@H](N)CCCNC(=N)N)C(=O)O [Peptide R6, H-RRRRRR-OH]
IC50 [1]: > 5 µM
neuroprotection, milder insult [1]: ineffective

Ac-PLFAE-RRRRRRRRR-NH2 (Ac-PLFAERRRRRRRRR-NH2) [Cal/R9]
neuroprotection (neuronal viability) [1]: moderate to high level neuroprotection

GRKKRRQRRRG [TAT, the TAT peptide, reference compound]
neuroprotection when peptide washed-out prior to glutamic acid exposure ([1]; 15 min incubation, wash-out before insult (FIG. 1c)): loss of efficacy
calcium influx after glutamic acid [2]: to varying degrees reduced calcium influx

H-AAVALLPAVLLALLAP-OH [kFGF, reference compound]
neuroprotection (neuronal viability) [1]: ineffective

H-AAVALLPAVLLALLAP-PPRPKRPTTLNLFPQVPRSQDT-OH (H-AAVALLPAVLLALLAPPPRPKRPTTLNLFPQVPRSQDT-OH) [kFGF-JNKI-1, reference compound]
neuroprotection (neuronal viability) [1]: not neuroprotective

H-EEEEEEEEE-RRRRRRRRR-OH (H-EEEEEEEEERRRRRRRRR-OH) [E9/R9, reference compound]
neuroprotection (neuronal viability) ([1]; listed as E91R9): no protection

H-GRKKRRQRRR-PPRPKRPTTLNLFPQVPRSQDT-OH (H-GRKKRRQRRRPPRPKRPTTLNLFPQVPRSQDT-OH) [TAT-JNKI-1, reference compound]
neuroprotection (neuronal viability) [1]: neuroprotective
calcium influx after glutamic acid [2]: to varying degrees reduced calcium influx

H-KETWWETWWTEWSQPKKKRKV-NH2 [Pep-1, reference compound]
IC50 ([3]; 24 h): > 15 µM
lower concentrations at which neuroprotective ([3]; FIG. 3a): 1 to 5 µM
neuroprotection ([3]; peptide present during in vitro ischemia and at 50% dose after (FIG. 3a)): neuroprotective following in vitro ischemia at lower concentrations

H-RRERRRRSCAGCSRARGSCRSCRR-NH2 (cysteine pairing not given here) [NCXBP3]
neuroprotection (neuronal viability) [1]: high levels of protection

H-RRRRRRRR-OH [Peptide R8]
concentration at which (significant) neuroprotection displayed ([1]; dose response studies FIGS. 6, 7, 8): 5 µM
neuroprotection (neuronal viability) [1]: moderate to high level neuroprotection

H-RRRRRRRRRPGRVVGGRRRRRRRRR-OH [R9/tPA/R9]
IC50 [1]: 0.29 µM
order of potency ([1]; dose response studies, glutamate model): potency between R12 and R18
neuroprotection (neuronal viability) [1]: highly effective

H-YARAAARQARA-OH [PTD-4, reference compound]
neuroprotection (neuronal viability) [1]: little to no neuroprotective properties
neuroprotection (neuronal viability) ([1]; listed as PTA4): largely ineffective

H-rrrrrrrrr-NH2 [D-R9]
effect of heparin on neuroprotective action ([1]; heparin 20 IU/ml with peptide or 40 IU/ml on cultures (FIGS. 39, 40)): blocks neuroprotective actions
reduction of infarct volume (brain damage) [4]: approximately 20%
calcium influx after glutamic acid [2]: to varying degrees reduced calcium influx

PRRRRSSRRPVRRRRRPRVSRRRRRGGRRRR [Ptm2]
neuroprotection (neuronal viability) [1]: neuroprotective
neuroprotection when added for 15 minutes after OGD ([3]; FIGS. 31, 20, 22, 1 μM and 5 μM in FIG. 31): neuroprotective
neuroprotection in the OGD model (overall statement) ([3]; discussion summary): neuroprotective

PRRRRSSSRPVRRRRRPRVSRRRRRGGRRRR [Ptm3]
neuroprotection (neuronal viability) [1]: neuroprotective
